Data reported in patent US20080214551A1, “Treatment of Burns” (AQ+ PLC, priority 2004, published 2008).

Structure (SMILES): Oc1cccc2cccnc12 [8-hydroxyquinoline]
- solubility in aqueous solution: generally insoluble or only poorly soluble
